Measurements: the NIST ThermoML archive (doi:10.1016/j.jct.2007.08.002)
Numbers after ± are expanded uncertainties.

Test: molar heat capacity at saturation pressure
Settings: Crystal 3, Small (less than 1 g) adiabatic calorimetry

NC12CC3CC(CC(C3)C1)C2 [tricyclo(3.3.1.1:3,7)decan-1-amine]
Settings	molar heat capacity [J/K/mol]
5.371 K	0.5825 ± 0.031
5.674 K	0.6834 ± 0.033
5.933 K	0.7778 ± 0.035
6.225 K	0.9013 ± 0.037
6.555 K	1.05 ± 0.039
6.892 K	1.221 ± 0.042
7.234 K	1.413 ± 0.046
7.582 K	1.615 ± 0.049
7.934 K	1.847 ± 0.053
8.29 K	2.095 ± 0.057
8.65 K	2.364 ± 0.061
9.012 K	2.653 ± 0.066
9.378 K	2.953 ± 0.07
9.748 K	3.269 ± 0.075
10.12 K	3.61 ± 0.08
10.59 K	4.072 ± 0.086
11.18 K	4.667 ± 0.095
11.76 K	5.291 ± 0.1
12.35 K	5.952 ± 0.11
12.95 K	6.634 ± 0.12
13.55 K	7.353 ± 0.13
14.16 K	8.092 ± 0.14
14.78 K	8.863 ± 0.15
15.5 K	9.794 ± 0.16
16.34 K	10.89 ± 0.17
17.18 K	12.01 ± 0.18
18.02 K	13.1 ± 0.19
18.87 K	14.19 ± 0.2
19.72 K	15.29 ± 0.21
20.86 K	16.74 ± 0.22
22.27 K	18.51 ± 0.22
23.71 K	20.25 ± 0.23
25.14 K	21.91 ± 0.24
26.57 K	23.5 ± 0.24
28.24 K	25.24 ± 0.24
29.96 K	26.91 ± 0.23
31.58 K	28.39 ± 0.24
33.36 K	29.89 ± 0.25
35.14 K	31.32 ± 0.26
36.93 K	32.63 ± 0.27
38.72 K	33.88 ± 0.27
40.51 K	35.04 ± 0.27
42.4 K	36.18 ± 0.28
44.38 K	37.34 ± 0.29
46.37 K	38.43 ± 0.29
48.36 K	39.47 ± 0.3
50.35 K	40.45 ± 0.3
52.35 K	41.44 ± 0.31
54.34 K	42.38 ± 0.32
56.34 K	43.3 ± 0.32
58.35 K	44.2 ± 0.32
60.36 K	45.16 ± 0.32
62.36 K	46.1 ± 0.33
64.37 K	46.99 ± 0.33
66.38 K	47.92 ± 0.34
68.39 K	48.83 ± 0.34
70.41 K	49.75 ± 0.35
72.42 K	50.71 ± 0.36
74.44 K	51.65 ± 0.36
76.46 K	52.68 ± 0.37
78.49 K	53.68 ± 0.37
78.62 K	53.84 ± 0.37
80.52 K	54.78 ± 0.37
80.69 K	54.93 ± 0.37
82.5 K	55.83 ± 0.38
82.55 K	55.82 ± 0.38
84.31 K	56.77 ± 0.38
84.59 K	56.97 ± 0.38
86.12 K	57.74 ± 0.39
88.91 K	59.25 ± 0.4
91 K	60.41 ± 0.44
92.82 K	61.47 ± 0.45
94.65 K	62.47 ± 0.45
96.48 K	63.45 ± 0.46
98.3 K	64.46 ± 0.46
100.14 K	65.47 ± 0.47
101.97 K	66.49 ± 0.47
103.81 K	67.54 ± 0.47
105.65 K	68.56 ± 0.47
107.49 K	69.56 ± 0.48
109.33 K	70.65 ± 0.48
111.18 K	71.75 ± 0.49
113.03 K	72.83 ± 0.49
114.88 K	73.92 ± 0.5
116.73 K	75.05 ± 0.5
118.59 K	76.14 ± 0.51
120.45 K	77.29 ± 0.51
122.31 K	78.44 ± 0.52
124.17 K	79.61 ± 0.52
126.03 K	80.8 ± 0.52
127.9 K	82.02 ± 0.53
129.77 K	83.23 ± 0.5
131.64 K	84.39 ± 0.5
133.51 K	85.64 ± 0.58
135.38 K	86.8 ± 0.58
137.26 K	88.05 ± 0.58
139.13 K	89.21 ± 0.58
141.01 K	90.54 ± 0.58
142.89 K	91.79 ± 0.58
144.78 K	93.04 ± 0.58
146.66 K	94.37 ± 0.58
148.56 K	95.62 ± 0.58
150.44 K	96.95 ± 0.58
150.6 K	97.03 ± 0.58
152.33 K	98.28 ± 0.58
153.55 K	99.11 ± 0.58
154.22 K	99.61 ± 0.58
156.12 K	100.94 ± 0.58
156.34 K	101.19 ± 0.58
158.01 K	102.27 ± 0.58
159.13 K	103.18 ± 0.58
159.9 K	103.68 ± 0.58
161.8 K	105.09 ± 0.58
161.91 K	105.26 ± 0.58
163.69 K	106.59 ± 0.67
164.48 K	107.17 ± 0.67
165.59 K	108 ± 0.67
166.66 K	108.92 ± 0.67
167.48 K	109.5 ± 0.67
168.73 K	110.58 ± 0.67
169.38 K	111 ± 0.67
170.79 K	112.25 ± 0.67
171.28 K	112.58 ± 0.67
172.85 K	113.91 ± 0.67
173.18 K	114.16 ± 0.67
174.91 K	115.65 ± 0.67
175.08 K	115.74 ± 0.67
176.96 K	117.4 ± 0.67
176.98 K	117.32 ± 0.67
178.89 K	119.06 ± 0.67
179.01 K	119.23 ± 0.67
180.8 K	120.73 ± 0.67
181.05 K	120.98 ± 0.67
182.71 K	122.39 ± 0.67
183.09 K	122.8 ± 0.67
184.61 K	124.05 ± 0.67
185.12 K	124.63 ± 0.67
186.52 K	125.8 ± 0.67
187.15 K	126.46 ± 0.75
188.43 K	127.63 ± 0.75
189.18 K	128.38 ± 0.75
190.33 K	129.46 ± 0.75
191.2 K	130.37 ± 0.75
192.24 K	131.37 ± 0.75
193.21 K	132.53 ± 0.75
194.15 K	133.36 ± 0.75
195.22 K	134.61 ± 0.75
